This note sets out measurements from patent publication US20250073303A1, “TDP-43 Interference Peptides, Methods, and Uses Thereof” (The University of British Columbia, priority 2022, published 2025).

Experiment [1] relates to mice with LPS plus sciatic nerve axotomy. Put plainly: LPS (1 mg/kg daily) plus sciatic nerve axotomy in mice: microglia activation and motor neuron death. In kind it is in vivo, mouse. Conditions: LPS 1 mg/kg daily i.p. plus axotomy. As for the experimental part:
FIG. 15: Example peptide D reduces microglia activation in lumbar spinal cord of mice with LPS plus sciatic nerve axotomy. Mice underwent LPS administration (1 mg/kg, daily, i.p.) plus sciatic nerve axotomy on day 0 and tissues were collected and fixed on day 7 post-surgery. Iba-1 staining of lumbar spinal cord of mice in each indicated group were counterstained with DAPI. 20 mg/kg of peptide D was injected daily through the i.p. route.
FIG. 16: Example peptide D prevents motor neuron death in ventral horn of spinal cord (L6) of mice with LPS plus sciatic nerve axotomy. Mice underwent LPS treatment (1 mg/kg, daily, i.p.) plus sciatic nerve axotomy on day 0 and tissue was collected and fixed on day 7 post-surgery. Markers of (A) ChAT staining (red) indicating motor neurons and (B) NeuN staining (green) counterstained with DAPI indicated alpha motor neurons in ventral horn of mice in each group. […]
Although neurodegeneration was detected in spinal cord of mice treated with a high dose of LPS (5 mg/kg, i.p.) plus sciatic nerve axotomy, motor neuron death was not observed in this model. […]
Since LPS causes systematic inflammation, microglia activation in ventral horn of spinal cord was first detected by staining with an Iba-1 antibody. […]

The subject of the next experiment is SH-SY5Y cells. Put plainly: Stress granule (TIA-1) numbers in SH-SY5Y cells with sodium arsenite. The class given is cell-based, human. Conditions: 1 mM sodium arsenite 1 hour, TIA-1 staining, vs scramble.
Experiment [2] deals with T1, TDP-43 (Mus musculus, UniProt Q921F2). Put plainly: Sodium arsenite induced TDP-43 and phosphoTDP43 aggregates in HL-1 cells. In kind it is cell-based. Details: endogenous in cells; host or cells: HL-1 cells (cardiomyocytes). Conditions: 0.05 mM sodium arsenite 16 hours. As for the experimental part:
FIG. 12. Example peptide D reduces TDP-43 and phosphoTDP43 aggregates in HL-1 cells following sodium arsenite treatment. Western blot analysis of protein expression (TDP-43, phosphoTDP-43, PARP and actin) in either soluble or insoluble fractions of HL-1 cells with 16 h treatment of sodium arsenite (0.05 mM).
In order to evaluate the function of example peptide D on alleviation of TDP-43 proteinopathies in cardiomyocytes, 0.05 mM of sodium arsenite was employed to treat HL-1 cells for 16 hours to induce TDP-43 and phosphoTDP43 aggregates. […] 20 μM of peptide D treatment in HL-1 cells under the same treatment conditions reduced insoluble aggregates of TDP-43 and phosphoTDP-43.

Experiment [3] has as its target T1, TDP-43. Nature of the experiment: LPS (1 mg/kg daily, 7 days) plus sciatic nerve axotomy in mice: TDP-43 aggregation by western blotting. In kind it is in vivo. Also noted: from tissue; host or cells: ventral lumbosacral spinal cord of mice, axotomy side. The note with it: LPS 1 mg/kg daily i.p. for 7 days plus axotomy; 20 mg/kg i.p.; vs control mice. As for the experimental part:
FIG. 17: Example peptide D reduces TDP-43 aggregates in lumbar spinal cord of mice with sciatic nerve axotomy and 7 days of LPS administration. Mice underwent sciatic nerve axotomy (day 0) and LPS (1 mg/kg, daily, i.p.) administration for 7 days (days 0-7). TDP-43 aggregation in lumbar spinal cord was evaluated by western blotting.
Since LPS causes systematic inflammation, microglia activation in ventral horn of spinal cord was first detected by staining with an Iba-1 antibody. […] In this setting, motor neuron loss in the lower limb motoneuron group in L5/6 of spinal cord was observed, as confirmed by staining with ChAT and NeuN antibodies. […] TDP-43 and phosphoTDP-43 insolubility in lumbar spinal cord was also confirmed by western blotting.

T1 sequence (Q921F2 whole entry): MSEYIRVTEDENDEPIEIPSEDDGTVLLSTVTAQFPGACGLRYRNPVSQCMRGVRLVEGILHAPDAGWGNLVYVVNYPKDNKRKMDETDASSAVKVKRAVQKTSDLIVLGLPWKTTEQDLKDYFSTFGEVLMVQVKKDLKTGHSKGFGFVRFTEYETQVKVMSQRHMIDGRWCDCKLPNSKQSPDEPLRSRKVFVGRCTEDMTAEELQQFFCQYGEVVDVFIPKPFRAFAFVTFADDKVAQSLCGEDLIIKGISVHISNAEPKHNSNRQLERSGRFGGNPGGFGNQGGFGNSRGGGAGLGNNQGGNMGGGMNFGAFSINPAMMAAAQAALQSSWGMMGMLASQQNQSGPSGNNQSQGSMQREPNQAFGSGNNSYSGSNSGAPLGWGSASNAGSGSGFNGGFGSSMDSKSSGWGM

In the case of “peptide D: candidate peptide from a CK-1δ binding region for TDP-43, truncated HIV-1 TAT domain added at the N-terminal (YGRKKRRQRRRGFSYDYVFDWNMLK)”, the “general microglia activation in lumbar spinal cord (Iba-1)” value in experiment [1] (day 7, 20 mg/kg daily i.p.) is given as “reduced”. In experiment [1] (day 7 post-surgery), the “motor neuron death (ChAT and NeuN staining)” value is listed as “less motor neuron death”. The “number of stress granules (SGs) induced by sodium arsenite” value with SH-SY5Y cells was “reduced”. Further, the “insoluble aggregates of TDP-43 and phosphoTDP-43” value with TDP-43 [2] (20 μM peptide) is reported as “reduced”. In addition, the PARP cleavage product result with TDP-43 [2] (treated vs untreated cells) is reported as “reduced”. The “TDP-43 aggregation in lumbar spinal cord” value with TDP-43 [3] is on record as “reduced”.
